Measured values taken from patent US20220306603A1, “TARGETING DNA REPAIR IN TUMOR CELLS VIA INHIBITION OF ERCC1-XPF” (The Governors of the University of Alberta, priority 2019, published 2022).
In brackets after ≈: the same amount, converted by molar mass. Entries after “also recorded” stand apart in the source; their conditions may differ. Where two headings read alike, the source gives them in different places. One block for each compound: values may come before it.

Tests used:
[1] = Stability of the compound over time; assay type: physicochemical
ERCC1-XPF complex = target: T1, ERCC1-XPF complex (Homo sapiens, UniProt Q92889); assay: Steady-state intrinsic tryptophan fluorescence quenching binding assay
T1 construct: His6; made in house; host or cells: E. coli BL21 (DE3)
T1 sequence (Q92889 1-916): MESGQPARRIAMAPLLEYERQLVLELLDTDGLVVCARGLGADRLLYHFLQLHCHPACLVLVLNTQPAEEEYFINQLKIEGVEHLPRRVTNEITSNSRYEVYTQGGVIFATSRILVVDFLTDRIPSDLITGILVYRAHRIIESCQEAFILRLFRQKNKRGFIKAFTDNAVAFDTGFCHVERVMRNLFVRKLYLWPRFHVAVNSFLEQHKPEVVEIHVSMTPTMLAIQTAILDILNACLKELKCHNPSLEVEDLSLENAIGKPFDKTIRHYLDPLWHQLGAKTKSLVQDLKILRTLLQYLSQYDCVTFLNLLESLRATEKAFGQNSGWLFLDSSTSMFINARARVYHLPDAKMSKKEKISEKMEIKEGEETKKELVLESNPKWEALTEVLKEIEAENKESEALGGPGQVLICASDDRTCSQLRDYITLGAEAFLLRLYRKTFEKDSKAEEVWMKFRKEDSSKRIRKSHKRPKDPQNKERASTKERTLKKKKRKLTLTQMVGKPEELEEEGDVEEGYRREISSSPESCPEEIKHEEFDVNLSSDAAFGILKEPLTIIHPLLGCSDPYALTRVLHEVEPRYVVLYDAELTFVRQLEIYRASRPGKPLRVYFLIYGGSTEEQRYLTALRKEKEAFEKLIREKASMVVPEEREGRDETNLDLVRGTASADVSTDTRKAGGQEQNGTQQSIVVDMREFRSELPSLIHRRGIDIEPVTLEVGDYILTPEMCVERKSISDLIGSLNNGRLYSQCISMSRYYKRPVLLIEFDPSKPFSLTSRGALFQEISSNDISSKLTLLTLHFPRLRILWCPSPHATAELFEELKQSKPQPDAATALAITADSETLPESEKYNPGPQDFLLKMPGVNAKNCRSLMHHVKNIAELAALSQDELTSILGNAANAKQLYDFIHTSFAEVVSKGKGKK
Experimental: Steady-state fluorescence spectra were measured at room temperature on a Perkin-Elmer LS-55 spectrofluorometer (Freemont, Calif.) with 5 nm spectral resolution for excitation and emission using 30-80 nM solution of purified recombinant ERCC1-XPF protein complex. […] In studying the effects of inhibitors on protein fluorescence intensities, additions to protein samples were made from inhibitors stock solutions, keeping the protein dilution below 3%.

ERCC1-XPF = target: T2, ERCC1-XPF (Homo sapiens, UniProt Q92889); assay: Microplate fluorescence incision assay of ERCC1-XPF endonuclease activity; assay type: biochemical; conditions: for inhibition of ERCC1-XPF endonuclease activity (in words): compounds 10 μM each
T2 construct: His6; made in house; host or cells: E. coli BL21 (DE3)
T2 sequence (Q92889 1-916): T1 sequence (Q92889 1-916)
Excerpt: This assay has been previously described (29), and utilizes a stem-loop substrate (composed of a 10mer-duplex stem and a 20mer-oligodT single-strand loop), labelled on the 5′-terminus with 6-FAM and 3′ with the quencher dabcyl.
Human ERCC1-XPF wild-type protein was obtained as previously described (29). Basically, the recombinant protein was expressed from a bicistronic plasmid (provided by Dr. Richard Wood, University of Texas MD Anderson Cancer Center, Smithville, Tex.) in the E. coli BL21 (DE3) strain. Since both XPF and ERCC1 contained a polyhistidine (His-6) tag, the proteins extracted from E. coli were incubated with a ProBond Nickel-Chelating Resin (Thermo Fisher Scientific). Protein eluted from the Ni affinity column was subsequently loaded into a Hi-trap heparin column (GE Healthcare). Fractions recovered from the heparin column that contained ERCC1-XPF were dialyzed, concentrated and stored at −80° C. in 10 mM HEPES pH 7.4, 2.5 mM p-mercaptoethanol, 0.01% CHAPS, 0.25 mM EDTA, 50% glycerol and 25 mM NaCl.
A previously described protocol (2,29) was followed.

HCT116 cells [2] = assay: Cellular repair of UV-induced cyclobutane pyrimidine dimers (immunofluorescence); assay type: cell-based, human; conditions: 8 J/m^2 UV-C, up to 24 h post-irradiation
Experimental: Protocol of Mirzayans et al. was followed with minor modifications (30). Approximately 1×10^5 HCT116 cells were seeded on each coverslip and allowed to attach overnight. Medium was then removed and cells were treated for one hour with the desired compound. The medium was removed, and cells were exposed to 8 J/m^2 UV-C radiation (G15T8 254 nm lamp, Ushio America Inc, Cypress, Calif.) followed by adding fresh medium containing the compound. Plates were incubated at 37° C. for different periods of time up to 24 hours and fixed in 50:50 methanol/1× phosphate-buffered saline (PBS) solution, followed by replacing the methanol/PBS solution with 100% methanol and incubation in −20° C. After 20 minutes, methanol was removed, and cells were treated with PBS for 5 minutes in room temperature. After fixing, cells were permeabilized in 0.5% Triton/PBS and washed with PBS, denatured in 2 N HCl, and neutralized by twice washing with 0.1 M borate buffer pH 8.5. Cells on cover slips were washed once with PBS followed by blocking with 5% non-fat dry milk/PBS for 30 minutes. Mouse anti-thymine dimer monoclonal antibody (Cat. No. MC-062, Kamiya Biomedical Company, Seattle, Wash.) was applied to the cover slips for one hour in the dark and at room temperature. Cells were then washed with PBS containing 0.1% Tween-20 and incubated with rabbit anti-mouse IgG-Alexafluor antibody (Invitrogen, Carlsbad, Calif.) followed by two washes with PBS/(0.1%)Tween-20. Cells on coverslips were then washed with PBS, rinsed with water, and mounted on slides using DAPI glycerol mounting solution. Slides were kept at 4° C. before fluorescent microscopic evaluation and measurement of fluorescence intensity with MetaXpress Version: 6.2.1.704 software (Molecular Devices, Sunnyvale, Calif.).
To test for inhibition of nucleotide excision repair, we monitored the cellular removal of UVC-induced cyclobutane pyrimidine dimers (CPDs) in HCT116 cells over a 24-hour period using an immunochemical assay.

[3] = ADME screening: cell permeability and efflux ratio; conditions: for Cell permeability (Mean recovery %) (in words): Table 8; for efflux ratio: not told
[4] = ADME screening: solubility; assay type: physicochemical; conditions: Table 8
[5] = Microsomal stability in vitro (human liver microsomes); conditions: for Microsomal stability in vitro CLint (in words): Table 8
[6] = system: interaction between ERCC1 and XPF; conditions: in vitro; cited from earlier work
HCT116 cells [7] = assay: Cytotoxicity profile: crystal violet viability assay (and colony forming assay); assay type: cell-based, human; conditions: 5 μM, 3 days exposure, crystal violet
Experimental: Crystal violet viability assays were carried out to assess the cellular toxicity of these compounds to HCT116 cells and to choose relatively non-cytotoxic concentrations to be further utilised in sensitizing cells to UV radiation or cyclophosphamide.
The beneficial effect is especially visible at a concentration of 5.0 μM. At higher concentrations, both compounds show an equal cytotoxic effect (FIG. 15).

[8] = Hepatocyte stability in vitro; assay type: in vitro ADME; conditions: Table 8
HCT116 cells [9] = assay: Clonogenic survival assay, UV treatment; assay type: cell-based, human; conditions: 254 nm UV 0-10 J/m^2; compound 0.5-4 μM
Experimental: UV treatment: HCT116 cells (100-800 cells depending on the UV dose) were plated in triplicate in 60-mm petri dishes. The cells were incubated overnight at 37° C. in a humidified atmosphere containing 5% CO2 to allow for cell attachment. […] Medium was removed again, and cells were exposed to increasing doses (0-10 J/m^2) of UV-C radiation and then incubated for a further 10 days in the presence of inhibitor at 37° C. in a 5% CO2 atmosphere to allow for colony formation. After this period plates were stained with crystal violet and colonies were counted using a Colcount instrument (Oxford Optronix, Abingdon UK). Finally, plating efficiency and surviving fraction were calculated.

cancer cells = conditions: cited from earlier work
serum proteins = assay: ADME screening: serum protein binding; assay type: in vitro ADME; conditions: Table 8
[10] = system: five CYP450 enzymes (CYP1A2, CYP2C9, CYP2C19, CYP2D6, CYP3A4-M); assay: ADME screening: CYP inhibition (five CYP450 enzymes); conditions: human
[11] = system: five CYP450 tested enzymes; assay: as above; conditions: Table 8
HCT116 cells [12] = assay: Clonogenic survival assay, cyclophosphamide treatment; assay type: cell-based, human; conditions: cyclophosphamide 0-300 μM; compound 1-4 μM
Experimental: Plates were incubated for another 8 days at 37° C. in a 5% CO2 atmosphere for colony formation. After this period plates were stained with crystal violet, colonies were counted, and plating efficiency and surviving fraction were calculated.

Structure (SMILES): COc1ccc2nc3cc(Cl)ccc3c(Nc3ccc(O)c(CN4CCN(C5CCCCC5)CC4)c3)c2c1 [Compound A3, 4-((6-Chloro-2-methoxyacridin-9-yl)amino)-2-((4-cyclohexylpiperazin-1-yl)methyl)phenol]
Kd (ERCC1-XPF complex; Table 6, read-out: Kd ± SD): 0.145 ± 0.005 µM
IC50 (ERCC1-XPF; Table 6, at least three experiments of Vo versus concentration, 30 minutes incubation, 5% DMSO, read-out: IC50 ± SD): 0.38 ± 0.1 µM
inhibition of ERCC1-XPF endonuclease activity (in words) (ERCC1-XPF): marked capacity to inhibit; also recorded: potent inhibitors

Structure (SMILES): COc1ccc2nc3cc(Cl)ccc3c(Nc3ccc(O)c(CN4CCN(c5ccc(Cl)c(Cl)c5)CC4)c3)c2c1 [Compound A5, 4-((6-Chloro-2-methoxyacridin-9-yl)amino)-2-((4-(3,4-dichlorophenyl)piperazin-1-yl)methyl)phenol]
quenching of protein fluorescence at 330 nm (ERCC1-XPF complex; 2 μM compound, excitation 295 nm): 3±1%
inhibition of ERCC1-XPF endonuclease activity (in words) (ERCC1-XPF): very limited inhibition
inhibition of cellular removal of CPDs / thymidine dimers (in words) (HCT116 cells [2]): failed to inhibit the cellular removal of CPDs

Structure (SMILES): COc1ccc2nc3cc(Cl)ccc3c(Nc3ccc(O)c(CN4CCN(C)CC4)c3)c2c1 [Compound F06, 4-((6-Chloro-2-methoxyacridin-9-yl)amino)-2-((4-methylpiperazin-1-yl)methyl)phenol, reference compound]
Kd (ERCC1-XPF complex; Table 6, read-out: Kd ± SD): 0.14 ± 0.005 µM
Kd (ERCC1-XPF complex; Table 7, read-out: Kd protein): 0.14 ± 0.005 µM
Cell permeability (Mean recovery %) (in words) [3]: Low (common)
efflux ratio [3]: > 2
efflux ratio ([3]; efflux ratio): 11.2
effect on the interaction between ERCC1 and XPF (in words) [6]: repressed the interaction between ERCC1 and XPF in vitro
cells survived (HCT116 cells [7]): about 35%
IC50 (ERCC1-XPF): 1.86 µM
IC50 (ERCC1-XPF; Table 7, at least three experiments of Vo versus concentration): 1.86 ± 0.25 µM
inhibition of ERCC1-XPF endonuclease activity (in words) (ERCC1-XPF): marked capacity to inhibit
IC50 (ERCC1-XPF; read-out: IC50 of ERCC1-XPF endonuclease activity, full-length ERCC1-XPF, 30 minutes incubation, 5% DMSO): 1.86 ± 0.25 µM
IC50 (ERCC1-XPF; read-out: IC50 ± SD, Table 6, at least three experiments of Vo versus concentration, 30 minutes incubation, 5% DMSO): 1.86 ± 0.25 µM
Hepatocyte stability in vitro CLint (in words) [8]: (medium clearance)
CLint scaled ([8]; hepatocytes): < 17.8 mL/min/kg
LogD (rating) (ADME screening: LogD; Table 8): Good
LogD (remark in the LogD row) (ADME screening: LogD; Table 8): (partially soluble)
logD (ADME screening: LogD; Table 8): 3.86
log D (ADME screening: LogD; pH 7.4): 3.86
sensitisation to UV radiation, clonogenic survival (in words) (HCT116 cells [9]): modest sensitisation capacity
sensitization of cancer cells to MMC and cisplatin (in words) (cancer cells): sensitized cancer cells to MMC and cisplatin
Serum protein binding (% bound) (serum proteins): (99.9) % bound
Serum protein binding (in words) (serum proteins): Strong binding
Solubility (in words) [4]: (partially soluble)
solubility ([4]; <1.56 means below lower limit of quantilation): 8.13 µM (≈ 3.76 µg/mL)
IC50 [10]: ≥ 1 µM
CVP inhibition (5 enzyme) (rating) [11]: Moderate
Microsomal stability in vitro CLint (in words) [5]: high
CLint scaled ([5]; human, liver microsomes): 53.7 mL/min/kg

Structure (SMILES): COc1ccc2nc3cc(Cl)ccc3c(Nc3ccc(O)c(CN4CCN(CCNc5ccccc5)CC4)c3)c2c1 [Gen C-5, 4-((6-Chloro-2-methoxyacridin-9-yl)amino)-2-((4-(2-(phenylamino)ethyl)piperazin-1-yl)methyl)-phenol]
sensitisation to cyclophosphamide, clonogenic survival (in words) (HCT116 cells [12]): no significant sensitisation effect

More lines, main results first:

stability over time (in words) [1]: instability over time
Structure (SMILES): COc1ccc2nc3cc(Cl)ccc3c(Nc3ccc(O)c(CN4CCN(Cc5cccc(C)c5)CC4)c3)c2c1 [Compound A2, 4-((6-Chloro-2-methoxyacridin-9-yl)amino)-2-((4-(3-methylbenzyl)piperazin-1-yl)methyl)phenol]

Kd (ERCC1-XPF complex; Table 7, read-out: Kd protein): 0.15 ± 0.01 µM
Cell permeability (Mean recovery %) (in words) [3]: Low (common)
IC50 (ERCC1-XPF; Table 7, at least three experiments of Vo versus concentration, read-out: IC50): 0.321 ± 0.022 µM
LogD (rating) (ADME screening: LogD; Table 8): Good
logD (ADME screening: LogD; pH 7.4): 2.31
Solubility (in words) [4]: Highly soluble
Microsomal stability in vitro CLint (in words) [5]: Moderate
Structure (SMILES): COc1ccc2nc3cc(Cl)ccc3c(Nc3cc(CN4CCCC4)c(O)c(CN4CCCC4)c3)c2n1 [Compound D4, pyronaridine, reference compound]
inhibition of ERCC1-XPF endonuclease activity (in words) (ERCC1-XPF): potent inhibitor; also recorded: strong inhibitory effect

inhibition of ERCC1-XPF endonuclease activity (in words) (ERCC1-XPF): complete loss of inhibition
Structure (SMILES): CN1CCN(Cc2cc(N)ccc2O)CC1 [Gen B4]

inhibition of ERCC1-XPF endonuclease activity (in words) (ERCC1-XPF): marked capacity to inhibit
Structure (SMILES): CN1CCN(Cc2cc(Nc3c4ccc(Cl)cc4nc4ccc(O)cc34)ccc2O)CC1 [Gen B5]
